Earlier results on two molecules are cited in patent US20040214804A1, “Combination of an aldosterone receptor antagonist and an anti-obesity agent” (Pharmacia Corporation, priority 2003, published 2004).

Data set [1] relates to severe heart failure patients. The conditions noted are these: left ventricular ejection fraction no more than 35%, on standard therapy (ACE inhibitor, loop diuretic, in some cases digoxin).
Data set [2] deals with dietary-induced obesity in dogs. The following applies: during development of dietary-induced obesity.

Molecules are shown by their SMILES.

On to `CC(=O)S[C@@H]1CC2=CC(=O)CCC2(C)C2CC[C@]3(C)[C@@H](CC[C@@]34CCC(=O)O4)C21` (stereo partly drawn) [spironolactone, 17-hydroxy-7α-mercapto-3-oxo-17α-pregn-4-ene-21-carboxylic acid γ-lactone acetate], for which, in data set [1], the “incidence of hospitalization relative to placebo-treated subjects” value is given as “statistically significant reduction” and the “mortality relative to placebo-treated subjects” value was “statistically significant reduction”.
With `COC(=O)[C@@H]1CC2=CC(=O)CC[C@]2(C)[C@@]23O[C@@H]2C[C@@]2(C)[C@@H](CC[C@@]24CCC(=O)O4)[C@H]13` [Eplerenone, Pregn-4-ene-7,21-dicarboxylic acid, 9,11-epoxy-17-hydroxy-3-oxo-,γ-lactone, methyl ester, (7α,11α,17β)-], in data set [2], the “glomerular hyperfiltration associated with chronic dietary-induced obesity” value was “markedly attenuated”, the “hypertension associated with chronic dietary-induced obesity” value was “markedly attenuated” and the “sodium retention associated with chronic dietary-induced obesity” value is given as “markedly attenuated”.
